This note sets out measurements from PubChem BioAssay (NCI).

Each structure is given as a SMILES string.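 Interpolation was linear, between the two tested concentrations surrounding the appropriate level; five concentrations were tested over 48 hours in 96-well plates. GI50 = concentration required for 50% inhibition of growth. The concentration for full growth arrest is given as TGI.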

Common to all, as to test: NCI tumour cell line growth inhibition, 48 h
For test [1], the system named is PC-3 prostate.
The test system of test [2] is EKVX NSCLC.
The test system of test [3] is COLO 205 colon.
For test [4], the system named is BT-549 breast.
Test [5] has as its system SK-MEL-5 melanoma.
Test [6] concerns SNB-75 CNS.
In test [7] the test system is ACHN renal.
The subject of test [8] is MALME-3M melanoma.
Test [9] deals with RPMI-8226 leukemia.
Test [10] deals with SR leukemia.

In the case of `O=C1C(Sc2ccc3ccccc3c2)=C(Sc2ccc3ccccc3c2)C(=O)c2ccccc21`, the TGI was found to be 31.8 µM in test [1]; 23.8 µM in test [2]; 12.8 µM in test [3]; 83.2 µM in [4]; 12.4 µM in [5]; 28.7 µM in [6]. The TGI in test [7] came to 17.3 µM.
With `CN1CCCC1c1cccnc1.O=C(O)c1ccccc1O.O=C([O-])c1ccccc1[OH2+].O=C([O-])c1ccccc1[OH2+].[Mn+2]` (configuration not stated), the GI50 in [8] is 33.1 µM; in test [1] it was 58.1 µM; in [2] it was greater than 100 µM; in test [3], greater than 100 µM; in test [4], 54.3 µM; in test [5], greater than 100 µM. Besides, the GI50 in [6] was greater than 100 µM; in test [7] it was greater than 100 µM; in test [9], 77.9 µM. Besides, the TGI in test [8] is 76.6 µM; in test [1], greater than 100 µM; in test [2], greater than 100 µM; in test [3], greater than 100 µM; in test [4] it was greater than 100 µM; in test [5] it was greater than 100 µM. Further, the TGI in [6], in test [7] and in test [9] was greater than 100 µM throughout.
As for `CN1C(=NCCO)NS(=O)(=O)c2ccccc21`, the TGI in test [1], in test [2], in test [3], in [4], in test [5] and in test [10] was greater than 100 µM throughout. In addition, the TGI in test [7] is greater than 100 µM.
With `Clc1ccc([I+]c2ccc(Cl)cc2Cl)c(Cl)c1`, the GI50 was 1.73 µM in test [8]; 1.94 µM in [1]; 1.95 µM in [3]; 2.02 µM in test [4]; 6.04 µM in test [5]; 1.88 µM in [6]. Besides, the GI50 in test [10] is 2.19 µM; in [7] it was 1.89 µM; in test [9], 2.19 µM. Also, the TGI in test [8] was found to be 3.61 µM; in test [1] it was 4.72 µM; in test [3], 3.64 µM; in [4], 4.06 µM; in test [5], 20.3 µM; in test [6] it was 5.39 µM. Moreover, the TGI in test [10] is 5.65 µM; in [7] it was 3.77 µM; in test [9], 5.25 µM.
For the compound `c1ccc2c(CNCCN3CCNCC3)c3ccccc3c(CNCCN3CCNCC3)c2c1`, the GI50 is 11.8 µM in [8]; 5.86 µM in test [1]; 19.3 µM in test [2]; 13.8 µM in [3]; 28.3 µM in [4]; 15.6 µM in test [5]. Besides, the values for the GI50 in test [6] and in test [7] were 58.4 µM and 31.2 µM, respectively. Moreover, the TGI in [8] was 30.2 µM; in test [1] it was 20.3 µM; in [2] it was 61.3 µM; in [3], greater than 100 µM; in test [4], 75.6 µM; in test [5], 35.2 µM. Further, the TGI in [6] and in [7] was greater than 100 µM in each case.
`Clc1nc(Cl)c2ncn(CCOCCn3cnc4c(Cl)nc(Cl)nc43)c2n1`: the GI50 in test [8] was 0.221 µM; in test [1] it was 0.188 µM; in test [2], 1.31 µM; in [3] it was 0.204 µM; in [4], 0.208 µM; in test [5], 0.37 µM. For the same compound, the GI50 in test [6] is 0.181 µM; in [10], 0.241 µM; in test [7], 0.328 µM. For the same compound, the TGI in test [8] turned out to be 0.464 µM; in test [1], 0.365 µM; in test [2], 2.77 µM; in [3], 0.374 µM; in [4], 0.392 µM; in [5], 1.38 µM. Besides, the figures for the TGI in test [6], in [10] and in test [7] were 0.342 µM, 54.4 µM and 0.811 µM, respectively.
Consider `CCOC(=O)C(Cc1ccc(N(CCCl)CCCl)cc1)NC(=O)C(Cc1ccccc1)NC(C)=O` (configuration not stated), for which the TGI was greater than 0.374 µM in test [1]; greater than 0.538 µM in test [2]; greater than 0.321 µM in [3]; greater than 0.798 µM in test [4]; greater than 0.486 µM in test [5]; greater than 1 µM in [6]. In addition, the TGI in test [10] was greater than 1 µM; in test [7], 0.309 µM; in test [9], 0.211 µM.
`CN(C)CCCn1c2c(c3cc4c(cc3c1=O)OCO4)C(=O)c1ccccc1-2`: the GI50 was 0.365 µM in test [1]; 5.55 µM in test [2]; 7.61 µM in test [3]; 5.52 µM in [4]; 1.93 µM in test [5]; 5.89 µM in test [6]. Moreover, the GI50 in test [7] is less than 0.0213 µM; in [9] it was 0.208 µM. For the same compound, the TGI in [1] is 3.59 µM; in [2], 34.9 µM; in test [3], greater than 100 µM; in test [4] it was 29 µM; in test [5], 7.07 µM; in test [6] it was 37.4 µM. Besides, the TGI is 0.0486 µM in test [10], 0.234 µM in test [7] and 2.82 µM in test [9].
`CC1CCC2C(CN(CC3=C(C(F)(F)F)OC4OC5(C)CCC6C(C)CCC3C46OO5)CC3=C(C(F)(F)F)OC4OC5(C)CCC6C(C)CCC3C46OO5)=C(C(F)(F)F)OC3OC4(C)CCC1C32OO4` (configuration not stated): the GI50 in [8] was 6.73 µM; in [1], 3.99 µM; in test [2], 19.5 µM; in test [3], 7.64 µM; in test [4], 13.1 µM; in test [6], 81.6 µM. Also, the GI50 in [7] is 1.81 µM. Besides, the TGI in test [8] is 23 µM; in test [1], 20.1 µM; in test [2], 49.2 µM; in test [3], 28.6 µM; in test [4], 34.1 µM; in [6], greater than 100 µM. For the same compound, the TGI in [7] was found to be 3.49 µM.
As for `COc1cc(/C=C/C(=O)O[C@H]2[C@H](O[C@@H]3O[C@@H](C)[C@H](O)[C@@H](O)[C@H]3O)[C@@H](O)[C@H](OCCc3ccc(O)c(O)c3)O[C@@H]2COC2OCC(O)(CO)C2O)ccc1O` (some centres not stated), the GI50 in test [1] was greater than 100 µM; in test [2], greater than 100 µM; in test [3] it was greater than 100 µM; in test [4] it was 23.8 µM; in [5] it was greater than 100 µM; in test [6], greater than 100 µM. Further, the GI50 in test [10], in [7] and in test [9] was greater than 100 µM in each case. Moreover, the TGI in test [1] was greater than 100 µM; in test [2], greater than 100 µM; in test [3] it was greater than 100 µM; in [4], 41.8 µM; in [5] it was greater than 100 µM; in test [6] it was greater than 100 µM. The TGI in test [10], in test [7] and in [9] was greater than 100 µM in each case.
